Reference: patent US4418079A, “Conjugated ketone compounds in preventing platelet thrombosis” (Sumitomo Chemical Company, Limited, priority 1978, dated 1983)
Converted amounts (≈) assume the structure as drawn. Counter-ions that a name gives are not always drawn. Like-named read-outs stand apart in the source and are kept apart here.

Tests used:
[1] = tested on: ADP induced platelet aggregation; assay: In vitro inhibition of ADP induced platelet aggregation (aggregometer method of Born, modified by Mustard); format: cell-based, rabbit; details: Oryctolagus cuniculus
Method: (§1) The aggregometer method of Born [G. V. R. Born: J.Physiol., London, 162, 67 (1962)] as modified by Mustard et al. [J. F. Mustard et al.: J.Lab.Clin.Med., 64, 548 (1964)] was used to assess the in vitro activity of various compounds as to inhibition of collagen and adenosine diphosphate (ADP) induced platelet aggregation. Platelet rich plasma (PRP) was separated by centrifugation from citrated (3.8%) rabbit blood. ADP in final concentration of […] prepared according to the method described by Evans et al. [G. Evans et al.: J.Exp. Med., 128, 877 (1968)] was used to induce aggregation. The test compounds were dissolved in buffer solution so that 0.05 ml added to PRP would yield the desired test concentration. Vehicle control trials were done and compared with aggregation induced in platelet rich plasma containing various concentrations of the test compounds. Dose response curves were obtained, and 50% inhibitive concentration (IC50) values were calculated.

[2] = tested on: collagen induced platelet aggregation; assay: In vitro inhibition of collagen induced platelet aggregation (aggregometer method of Born, modified by Mustard); format: cell-based, rabbit; details: Oryctolagus cuniculus
Method: as §1

[3] = tested on: Neuroleptic activity (Anti apomorphine test); assay: Neuroleptic activity (anti apomorphine test); format: in vivo, rat; details: for neuroleptic activity, in words: rat, in vivo
Source text: No. ED50 (rat, s.c., mg/kg)
*P. A. J. Janssen et al.: ArzneimittelForschung, 15, 104-117 (1965)

[4] = tested on: ADP induced platelet aggregation; assay: Ex vivo inhibition of ADP induced aggregation in PRP after oral administration to rats; details: Rattus norvegicus, PRP 1 hour after oral administration, read-out: ED50, 50% inhibition of the aggregation (ADP)
Method: (§2) The conjugated ketone compounds [I] were also tested ex vivo in rats where ADP or collagen was used to induce aggregation in PRP samples obtained 1 hour after oral administration. Blood was drawn after dosing and the procedure of platelet aggregation was the same as the in vitro experiments. Inhibitory values were calculated compared with the activity of PRP samples of vehicle treated rats. The dose required to produce 50% inhibition of the aggregation (ED50) was determined by dose response data obtained in this manner.

[5] = tested on: collagen induced platelet aggregation; assay: Ex vivo inhibition of collagen induced aggregation in PRP after oral administration to rats; details: Rattus norvegicus, PRP 1 hour after oral administration, read-out: ED50, 50% inhibition of the aggregation (collagen)
Method: as §2

[6] = tested on: blood platelet aggregation; assay: Blood platelet anti-aggregation activity (general statements); format: cell-based, rabbit; details: compared with compound [A] / compounds of U.S. Pat. No. 4,012,515
Method: as §1

[7] = in vitro, ADP, Table 2, read-out: Blood platelet aggregation inhibitory activity IC50, ADP
[8] = in vitro, Collagen, Table 2, read-out: Blood platelet aggregation inhibitory activity IC50, Collagen
[9] = in vitro, rabbit PRP, ADP induced, Table 1, read-out: Inhibitory activity IC50, ADP
[10] = in vitro, rabbit PRP, collagen induced, Table 1, read-out: Inhibitory activity IC50, Collagen

| Compound | IC50 [1, 9] [µg/mL] | IC50 [2, 10] [µg/mL] | other results |
| --- | --- | --- | --- |
| O=C(/C=C/CN1CCC(O)(c2cccc(C(F)(F)F)c2)CC1)c1ccc(F)cc1 [A, reference compound] | – | – | IC50 [1, 7]: 9 µg/mL (≈ 22.1 µM); IC50 [2, 8]: 3.5 µg/mL (≈ 8.59 µM); ED50 ([3]; Rattus norvegicus, sc, read-out: Neuroleptic activity (Anti apomorphine test) ED50): 0.1 mg/kg |
| CN(C)C/C=C/C(=O)c1ccccc1 [Compound 1] | 3.3 (≈ 17.4 µM) | 2 (≈ 10.6 µM) | – |
| CCN(C)C/C=C/C(=O)c1ccccc1 [Compound 2] | 3 (≈ 14.8 µM) | 2.2 (≈ 10.8 µM) | – |
| CCN(CC)C/C=C/C(=O)c1ccccc1 [Compound 3, N-(4-Phenyl-4-oxo-2-trans-butenyl)-N,N-diethylamine hydrobromide] | 3.3 | 1.5 | IC50 [1, 7]: 3.3 µg/mL; IC50 [2, 8]: 1.5 µg/mL; neuroleptic activity, in words [3]: does not produce any slight degree of neuroleptic activity; neuroleptic activity, in words ([3]; sc): No effect at 10 mg/kg; ED50 [4]: 0.3 mg/kg; ED50 [5]: 3 mg/kg; blood platelet anti-aggregation activity, in words [6]: more potent than the compound [A] in blood platelet anti-aggregation activity |
| CCCN(C/C=C/C(=O)c1ccccc1)CCC [Compound 4] | 2.5 (≈ 10.2 µM) | 1.3 (≈ 5.3 µM) | – |
| CC(C)N(C/C=C/C(=O)c1ccccc1)C(C)C [Compound 5] | 3.7 (≈ 15.1 µM) | 1.6 (≈ 6.52 µM) | – |
| CCCCN(C/C=C/C(=O)c1ccccc1)CCCC [Compound 6] | 5.2 (≈ 19 µM) | 2.7 (≈ 9.87 µM) | – |
| CN(C/C=C/C(=O)c1ccccc1)C12CC3CC(CC(C3)C1)C2 [Compound 7] | 3.6 (≈ 11.6 µM) | 2.4 (≈ 7.76 µM) | – |
| CN(C/C=C/C(=O)c1ccccc1)C1CCCCC1 [Compound 8] | 1.8 (≈ 6.99 µM) | 3.7 (≈ 14.4 µM) | – |
| O=C(/C=C/CN1CCCC1)c1ccccc1 [Compound 9] | 2.5 (≈ 11.6 µM) | 1.2 (≈ 5.57 µM) | – |
| O=C(/C=C/CN1CCCCC1)c1ccccc1 [Compound 10] | 5.2 (≈ 22.7 µM) | 3.2 (≈ 14 µM) | ED50 [5]: 2 mg/kg |
| CCN(CC)CC/C=C/C(=O)c1ccccc1 [Compound 11] | 6 (≈ 25.9 µM) | 1.8 (≈ 7.78 µM) | – |
| CCN(CC)C/C=C/C(=O)c1ccccc1Cl [Compound 12] | 3.1 (≈ 12.3 µM) | 2.8 (≈ 11.1 µM) | – |
| O=C(/C=C/CN1CCCCC1)c1cccc(Cl)c1 [Compound 13] | 3.1 (≈ 11.8 µM) | 3.1 (≈ 11.8 µM) | – |
| CCN(CC)C/C=C/C(=O)c1ccc(Cl)cc1 [Compound 14] | 1.6 (≈ 6.36 µM) | 2.5 (≈ 9.93 µM) | – |
| O=C(/C=C/CN1CCCCC1)c1ccc(Cl)cc1 [Compound 15] | 4.8 (≈ 18.2 µM) | 1.6 (≈ 6.07 µM) | – |
| O=C(/C=C/CN1CCCCC1)c1ccc(Br)cc1 [Compound 16] | 3.2 (≈ 10.4 µM) | 3 (≈ 9.73 µM) | – |
| CCN(CC)C/C=C/C(=O)c1ccc(C)cc1 [Compound 17] | 2.3 (≈ 9.94 µM) | 1.5 (≈ 6.48 µM) | – |
| Cc1ccc(C(=O)/C=C/CN2CCCCC2)cc1 [Compound 18] | 2 (≈ 8.22 µM) | 3.4 (≈ 14 µM) | – |

| Compound | IC50 [1, 9] [µg/mL] | IC50 [2, 10] [µg/mL] | other results |
| --- | --- | --- | --- |
| CCN(CC)C/C=C/C(=O)c1ccc(OC)cc1 [Compound 19] | 3.7 (≈ 15 µM) | 3.5 (≈ 14.2 µM) | – |
| CCN(CC)C/C=C/C(=O)c1ccc2c(c1)OCO2 [Compound 20] | 1.3 (≈ 4.97 µM) | 3.7 (≈ 14.2 µM) | – |
| CSc1ccccc1C(=O)/C=C/CN1CCCCC1 [Compound 21] | 3.2 (≈ 11.6 µM) | 3.7 (≈ 13.4 µM) | – |
| CSc1ccc(C(=O)/C=C/CN(C)C)cc1 [Compound 22] | 1.2 (≈ 5.1 µM) | 2.2 (≈ 9.35 µM) | – |
| CCN(CC)C/C=C/C(=O)c1ccc(SC)cc1 [Compound 23] | 1.4 (≈ 5.31 µM) | 2.4 (≈ 9.11 µM) | – |
| CCCN(C/C=C/C(=O)c1ccc(SC)cc1)CCC [Compound 24] | 3.6 (≈ 12.4 µM) | 2.6 (≈ 8.92 µM) | – |
| CSc1ccc(C(=O)/C=C/CN2CCCC2)cc1 [Compound 25] | 3 (≈ 11.5 µM) | 1.1 (≈ 4.21 µM) | – |
| CSc1ccc(C(=O)/C=C/CN2CCCCC2)cc1 [Compound 26] | 1.2 (≈ 4.36 µM) | 1.5 (≈ 5.45 µM) | – |
| CCN(CC)C/C=C/C(=O)c1ccccc1C(F)(F)F [Compound 27] | 3 (≈ 10.5 µM) | 4.2 (≈ 14.7 µM) | – |
| O=C(/C=C/CN1CCCCC1)c1ccc(C(F)(F)F)cc1 [Compound 28] | 2.7 (≈ 9.08 µM) | 3.1 (≈ 10.4 µM) | – |
| CCN(CC)C/C=C/C(=O)c1ccc2ccccc2c1 [Compound 29] | 1.25 (≈ 4.68 µM) | 1.7 (≈ 6.36 µM) | – |
| O=C(/C=C/CN1CCCCC1)c1ccc2ccccc2c1 [Compound 30] | 2.2 (≈ 7.87 µM) | 2.2 (≈ 7.87 µM) | – |
| CCN(CC)C/C=C/C(=O)c1ccco1 [Compound 31] | 3 (≈ 14.5 µM) | 1.8 (≈ 8.68 µM) | – |
| CCCCCCN(C)C/C=C/C(=O)c1ccco1 [Compound 32] | 4.5 (≈ 18 µM) | 5.8 (≈ 23.3 µM) | – |
| O=C(/C=C/CN1CCCCC1)c1ccco1 [Compound 33] | 3.8 (≈ 17.3 µM) | 2.2 (≈ 10 µM) | – |
| CCN(CC)C/C=C/C(=O)c1cccs1 [Compound 34] | 3 (≈ 13.4 µM) | 2.3 (≈ 10.3 µM) | – |
| O=C(/C=C/CN1CCCCC1)c1cccs1 [Compound 35] | 2.8 (≈ 11.9 µM) | 1.8 (≈ 7.65 µM) | – |
| O=C(/C=C/CN1CC2CCC(CC2)C1)c1ccccc1 [Compound 36] | 2.7 (≈ 10 µM) | 1.2 (≈ 4.45 µM) | – |
| COc1ccc(Cc2nccc3cc(OC)c(OC)cc23)cc1OC [Papaverine, reference compound] | – | – | IC50 ([1]; read-out: Inhibitory activity IC50, ADP): 65 µg/mL (≈ 192 µM); IC50 ([2]; read-out: Inhibitory activity IC50, Collagen): 60 µg/mL (≈ 177 µM) |
